Measured values reported in PMC5571044 (Scientific Reports, 2017).

Columns and labels:
[1] = biological target: influenza A PB2long (FluA H3N2 PB2 241–741) (Influenza A virus (A/Udorn/307/1972(H3N2)), UniProt Q67296); assay: biochemical; format: binding, influenza A/Udorn/307/1972(H3N2)
[2] = biological target: PB2cap (Influenza A virus (A/Udorn/307/1972(H3N2)), UniProt Q67296); assay: biochemical; format: binding, influenza A/Udorn/307/1972(H3N2)
[3] = test system: A/H3N2/Udorn/72 PB2, PB1, PA, NP replicon (WT); assay: cells; format: cell-based, influenza A/H3N2/Udorn/72 in 293 T cells; settings: Influenza A virus, H3N2, HEK-293T, 48 h, read-out: Replicon EC50, WT
[4] = biological target: PB2long (Influenza A virus (A/Udorn/307/1972(H3N2)), UniProt Q67296); assay: biochemical; format: binding, influenza A/Udorn/307/1972(H3N2)
Chain of PB2long (Influenza A virus (A/Udorn/307/1972(H3N2)), UniProt Q67296) (Q67296 241-741 limits assumed): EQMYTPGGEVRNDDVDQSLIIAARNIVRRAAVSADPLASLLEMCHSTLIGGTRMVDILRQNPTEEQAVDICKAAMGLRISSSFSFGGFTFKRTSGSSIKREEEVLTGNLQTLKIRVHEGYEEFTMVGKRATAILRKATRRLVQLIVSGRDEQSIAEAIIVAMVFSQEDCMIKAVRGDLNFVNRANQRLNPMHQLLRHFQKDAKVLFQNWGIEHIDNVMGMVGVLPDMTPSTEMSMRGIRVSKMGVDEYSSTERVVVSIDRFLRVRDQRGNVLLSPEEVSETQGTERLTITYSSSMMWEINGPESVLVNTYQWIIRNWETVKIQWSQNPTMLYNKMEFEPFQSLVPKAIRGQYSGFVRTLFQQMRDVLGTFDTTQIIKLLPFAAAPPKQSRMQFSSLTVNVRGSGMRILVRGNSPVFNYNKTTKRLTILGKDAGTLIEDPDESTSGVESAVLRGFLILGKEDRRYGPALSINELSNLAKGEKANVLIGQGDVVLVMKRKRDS

Chain of PB2cap (Influenza A virus (A/Udorn/307/1972(H3N2)), UniProt Q67296) (Q67296 309-483 limits assumed): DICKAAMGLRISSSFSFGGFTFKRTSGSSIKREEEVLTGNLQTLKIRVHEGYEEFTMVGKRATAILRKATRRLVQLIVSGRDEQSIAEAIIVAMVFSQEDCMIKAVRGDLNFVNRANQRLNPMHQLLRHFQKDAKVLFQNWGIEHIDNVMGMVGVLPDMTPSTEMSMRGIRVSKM
Chain of influenza A PB2long (FluA H3N2 PB2 241–741) (Influenza A virus (A/Udorn/307/1972(H3N2)), UniProt Q67296) (Q67296 241-741 limits assumed): as the sequence (Q67296 241-741 limits assumed) above

O=C(O)[C@H]1C2CCC(CC2)[C@@H]1Nc1nc(-c2c[nH]c3ncc(F)cc23)ncc1F [VX-787]
Kd [1]: 0.67 nM | Kd [2]: 78 nM | kon ([2]; read-out: ka (association rate), PB2cap): 59000 M⁻¹ s⁻¹ | koff ([2]; read-out: kd (dissociation rate), PB2cap): 0.0046 s⁻¹ | EC50 [3]: 3.5 nM | Kd [4]: 0.0067 nM | kon ([4]; read-out: ka (association rate), PB2long): 2.9e+06 M⁻¹ s⁻¹ | koff ([4]; read-out: kd (dissociation rate), PB2long): 2e-05 s⁻¹
